Test results from the NIST ThermoML archive (doi:10.1016/j.jct.2007.02.009).

Test: molar heat capacity at constant pressure
Conditions: 101.33 kPa, Crystal

CN(C)C=O [dimethylformamide]
Conditions | molar heat capacity at constant pressure [J/K/mol]
5 K | 0.221
7.54 K | 0.753
7.59 K | 0.763
8.21 K | 0.931
8.29 K | 0.964
8.88 K | 1.19
9.41 K | 1.46
9.52 K | 1.55
9.91 K | 1.74
10 K | 1.79
10.37 K | 1.995
10.81 K | 2.263
11.24 K | 2.533
11.66 K | 2.776
12.07 K | 2.996
12.44 K | 3.216
12.83 K | 3.574
13.05 K | 3.741
13.48 K | 4.017
14.16 K | 4.518
14.83 K | 5.048
15 K | 5.187
15.49 K | 5.622
16.15 K | 6.115
16.81 K | 6.702
17.45 K | 7.307
18.1 K | 7.9
18.75 K | 8.506
19.2 K | 8.88
19.64 K | 9.354
20 K | 9.678
20.28 K | 9.986
21.81 K | 11.31
24.35 K | 13.98
25 K | 14.64
26.01 K | 15.67
28.18 K | 17.9
29.89 K | 19.58
30 K | 19.63
32.35 K | 21.81
34.82 K | 24.08
37.3 K | 26.24
39.15 K | 27.83
40 K | 28.52
40.98 K | 29.35
42.91 K | 30.92
43.45 K | 31.29
44.78 K | 32.3
45.93 K | 33.16
49.17 K | 35.67
50 K | 36.34
51.08 K | 37.1
53.56 K | 38.97
56.03 K | 40.81
58.51 K | 42.63
60 K | 43.49
60.98 K | 44.1
63.46 K | 45.65
65.93 K | 47.18
68.4 K | 49.19
70 K | 49.95
70.88 K | 50.36
73.21 K | 52.04
75.22 K | 52.99
77.32 K | 54.31
79.34 K | 55.1
80 K | 55.45
82.06 K | 56.51
84.87 K | 57.9
87.85 K | 59.4
90 K | 60.47
90.82 K | 60.89
93.8 K | 62.3
96.76 K | 63.67
99.73 K | 65.16
100 K | 65.36
102.7 K | 66.55
105.67 K | 67.8
106.15 K | 68.12
108.64 K | 69.18
109.01 K | 69.31
110 K | 69.68
111.61 K | 70.34
111.97 K | 70.65
114.57 K | 71.6
114.94 K | 71.75
117.89 K | 73.04
120 K | 73.76
120.75 K | 74.11
123.71 K | 75.3
126.68 K | 76.26
129.64 K | 77.49
130 K | 77.82
132.61 K | 78.6
138.24 K | 80.9
